Biological target: T1, mouse TLR7 (Mus musculus, UniProt P58681)
T1 sequence (P58681 27-1050): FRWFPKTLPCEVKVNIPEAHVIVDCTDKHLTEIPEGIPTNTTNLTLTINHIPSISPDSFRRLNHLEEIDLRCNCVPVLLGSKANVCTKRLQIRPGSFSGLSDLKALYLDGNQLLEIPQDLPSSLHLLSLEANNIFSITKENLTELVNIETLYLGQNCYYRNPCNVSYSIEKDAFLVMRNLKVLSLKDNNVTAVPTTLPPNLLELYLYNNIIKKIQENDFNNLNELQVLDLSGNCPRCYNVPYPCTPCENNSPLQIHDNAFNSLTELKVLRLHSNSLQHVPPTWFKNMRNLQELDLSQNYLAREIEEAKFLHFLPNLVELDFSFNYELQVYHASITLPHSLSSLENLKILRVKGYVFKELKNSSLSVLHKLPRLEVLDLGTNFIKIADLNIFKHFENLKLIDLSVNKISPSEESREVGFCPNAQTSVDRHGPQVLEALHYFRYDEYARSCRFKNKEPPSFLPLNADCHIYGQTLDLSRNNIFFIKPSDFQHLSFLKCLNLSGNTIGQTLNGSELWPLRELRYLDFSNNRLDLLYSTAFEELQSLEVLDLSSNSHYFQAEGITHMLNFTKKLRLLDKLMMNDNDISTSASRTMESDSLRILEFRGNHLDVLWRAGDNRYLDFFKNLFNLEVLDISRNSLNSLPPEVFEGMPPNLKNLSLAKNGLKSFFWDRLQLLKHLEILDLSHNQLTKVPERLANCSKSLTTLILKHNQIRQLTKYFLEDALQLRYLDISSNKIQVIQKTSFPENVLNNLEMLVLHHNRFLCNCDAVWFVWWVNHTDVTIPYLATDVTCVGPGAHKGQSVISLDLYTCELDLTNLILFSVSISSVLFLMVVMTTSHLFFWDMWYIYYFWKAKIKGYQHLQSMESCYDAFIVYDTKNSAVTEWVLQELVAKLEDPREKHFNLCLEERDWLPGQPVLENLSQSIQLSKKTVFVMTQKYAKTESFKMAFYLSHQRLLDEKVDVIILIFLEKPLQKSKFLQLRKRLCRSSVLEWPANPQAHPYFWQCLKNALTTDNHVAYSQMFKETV
Test: Short-term in vivo (STIV) assay: oral dosing, R848 s.c., plasma IL-6
Set-up: female BALB/c mice (Jackson Labs, Bar Harbor, Me.) were dosed by oral gavage; tissue Jackson Labs; host or cells: living female BALB/c mice; plasma IL-6 after s.c. R848
Conditions: for short-term in vivo suppression of the TLR7 pathway (plasma IL-6): 33, 100 or 300 mg/kg oral, 6, 13 or 24 hours, FIG. 1
In short: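 Female BALB/c mice (6–8 weeks) dosed orally with compound in 0.5% aqueous methyl-cellulose at 33, 100 or 300 mg/kg; at various times afterwards given 15 ug R848 s.c. to stimulate TLR7. Plasma IL-6 measured by ELISA to gauge potency and duration of action.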

| Compound | % Suppression vs. Vehicle (3 h, 33 mg/kg) | % Suppression vs. Vehicle (6 h, 33 mg/kg) | % Suppression vs. Vehicle (6 h, 100 mg/kg) | % Suppression vs. Vehicle (6 h, 300 mg/kg) | % Suppression vs. Vehicle (13 h, 33 mg/kg) | % Suppression vs. Vehicle (13 h, 100 mg/kg) | % Suppression vs. Vehicle (13 h, 300 mg/kg) | % Suppression vs. Vehicle (19 h, 33 mg/kg) | % Suppression vs. Vehicle (24 h, 100 mg/kg) | % Suppression vs. Vehicle (24 h, 300 mg/kg) | short-term in vivo suppression of the TLR7 pathway (plasma IL-6) | duration of full suppression of the R848/TLR7/IL-6 pathway in vivo (single oral dose 300 mg/kg) |
| --- | --- | --- | --- | --- | --- | --- | --- | --- | --- | --- | --- | --- |
| CC[C@H]1CN(C[C@H]2CN(c3ccc(C#N)c4ncccc34)C[C@@H](C)O2)CCN1 [ER-890963] | 90% | 98% | 99% | 100% | 31% | 80% | 100% | 45% | 50% | 100% | – | – |
| C[C@@H]1CN(c2ccc(C#N)c3ncccc23)C[C@H](C(=O)NC2CCN(C)CC2)O1 [ER-899464, (2R,6R)-4-(8-cyanoquinolin-5-yl)-6-methyl-N-(1-methylpiperidin-4-yl)morpholine-2-carboxamide] | – | – | 99% | – | – | 96% | – | – | – | – | suppression of the TLR7 pathway | – |
| C[C@@H]1CN(c2ccc(C#N)c3ncccc23)C[C@H](C(=O)N[C@H]2CNC[C@H]2F)O1.Cl [ER-899742, (2R,6R)-4-(8-cyanoquinolin-5-yl)-N-[(3S,4R)-4-fluoropyrrolidin-3-yl]-6-methylmorpholine-2-carboxamide hydrochloride] | – | – | 100% | – | – | 61% | – | – | – | – | suppression of the TLR7 pathway | at least 24 hours |

— USRE47193E1, “Selectively substituted quinoline compounds” (EISAI R&D MANAGEMENT CO., LTD., priority 2013, dated 2019)
